In patent US11279733B2, “Peptide antibiotics” (priority 2017, dated 2022):
Values after ≈ are worked out from the molar mass of the structure shown. Read-outs that look alike come from different tables or passages of the source. Positions of bridges follow the written chain, without caps; N, C: chain ends. Non-standard residues stand in square brackets, D forms with d. Residues, ends and D or L forms follow the SMILES beside them. *: point of attachment. Decanoyl(3R-OH) = CCCCCCC[C@@H](O)CC(=O)*; dBip = N[C@H](Cc1ccc(-c2ccccc2)cc1)C(=O)O; dDab = NCC[C@@H](N)C(=O)O; Dab = NCC[C@H](N)C(=O)O

Assays:
[1] = test system: K. pneumoniae ATCC 700603, MDR; details: ATCC 700603
Method in brief: (§1)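 Mid-log cultures grown in Mueller Hinton broth at 37° C were tested by 2-fold broth microdilution at 5×10^5 CFU/mL final. Compounds were dissolved in water and tested over a final range of 32 to 0.015 μg/mL.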

A. baumannii GN_093 PmxR = details: GN 093 PmxR
Method in brief: as §1

[2] = test system: K. pneumoniae ATCC BAA-2146, NDM-1 pos; details: ATCC BAA-2146
Method in brief: as §1

P. aeruginosa ATCC 27853 = details: ATCC 27853
Method in brief: as §1

[3] = test system: K. pneumoniae GN_106, PmxR; details: GN 106, PmxR
Method in brief: as §1

[4] = test system: P. aeruginosa GN_043, PmxR
Method in brief: as §1

E. coli ATCC 25922 = details: ATCC 25922
Method in brief: as §1

K. pneumoniae ATCC 13883 = details: ATCC 13883
Method in brief: as §1

[5] = test system: S. aureus ATCC 25923, MSSA; details: ATCC 25923
Method in brief: as §1

[6] = test system: P. aeruginosa GN_105, PmxR; details: GN 105, PmxR
Method in brief: as §1

[7] = test system: K. pneumoniae GN_102 PmxR; details: GN 102 PmxR
Method in brief: as §1

A. baumannii ATCC 19606 = details: ATCC 19606
Method in brief: as §1

in vitro = details: human
Method in brief: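 HK2 cells were seeded at 2000 per well in DMEM/F12 with 10% FBS and left to attach for 24 h at 37 °C, 5% CO2. They were then exposed for 24 h to 3-fold peptide dilutions starting from 600 μM solutions in quadruplicate. LDH release was read at 450 nm, and CC50 was fitted from dose-response curves.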

Compound: CCCCCCC[C@@H](O)CC(=O)N[C@H](CCN)C(=O)N[C@H]1CCNC(=O)[C@H]([C@@H](C)O)NC(=O)[C@H](CCN)NC(=O)[C@H](CCN)NC(=O)[C@H](CC(C)C)NC(=O)[C@@H](Cc2ccccc2)NC(=O)[C@H](CCN)NC1=O [compound 5387, 3(R)OH-nC9CO-D-Dab-cyc[L-Dab-L-Dab-D-Phe-L-Leu-L-Dab-L-Dab-L-Thr]] ({Decanoyl(3R-OH)}-[dDab][Dab][Dab][dF]L[Dab][Dab]T; lactam 2-C)
- MIC K. pneumoniae ATCC 700603, MDR [1]: 2 µg/mL (≈ 1.94 µM)
- MIC A. baumannii GN_093 PmxR (A. baumannii GN_093 PmxR): >32 µg/mL
- MIC K. pneumoniae ATCC BAA-2146, NDM-1 pos [2]: 1 µg/mL (≈ 0.969 µM)
- MIC P. aeruginosa ATCC 27853 (P. aeruginosa ATCC 27853): 1 µg/mL (≈ 0.969 µM)
- MIC K. pneumoniae GN_106, PmxR [3]: >32 µg/mL
- MIC P. aeruginosa GN_043, PmxR ([4]; polymyxin-resistant): 2 µg/mL (≈ 1.94 µM)
- MIC E. coli ATCC 25922 (E. coli ATCC 25922): 2 µg/mL (≈ 1.94 µM)
- MIC K. pneumoniae ATCC 13883 (K. pneumoniae ATCC 13883): 2 µg/mL (≈ 1.94 µM)
- MIC S. aureus ATCC 25923, MSSA [5]: >32 µg/mL
- MIC P. aeruginosa GN_105, PmxR [6]: >32 µg/mL
- MIC K. pneumoniae GN_102 PmxR [7]: >32 µg/mL
- MIC A. baumannii ATCC 19606 (A. baumannii ATCC 19606): 8 µg/mL (≈ 7.75 µM)
- CC50 at 24 h (in vitro): 210 µM

Compound: CCCCCCC[C@@H](O)CC(=O)N[C@H](CCN)C(=O)N[C@H]1CCNC(=O)[C@H](CC(C)C)NC(=O)[C@H](CCN)NC(=O)[C@H](CCN)NC(=O)[C@H](CC(C)C)NC(=O)[C@H](C)NC(=O)[C@H](CCN)NC1=O [compound 4947, 3(R)OH-nC9CO-D-Dab-cyc[L-Dab-L-Dab-L-Ala-L-Leu-L-Dab-L-Dab-L-Leu]] ({Decanoyl(3R-OH)}-[dDab][Dab][Dab]AL[Dab][Dab]L; lactam 2-C)
- MIC K. pneumoniae ATCC 700603, MDR [1]: >32 µg/mL
- MIC A. baumannii GN_093 PmxR (A. baumannii GN_093 PmxR): >32 µg/mL
- MIC K. pneumoniae ATCC BAA-2146, NDM-1 pos [2]: >32 µg/mL
- MIC P. aeruginosa ATCC 27853 (P. aeruginosa ATCC 27853): 32 µg/mL (≈ 33 µM)
- MIC K. pneumoniae GN_106, PmxR [3]: >32 µg/mL
- MIC P. aeruginosa GN_043, PmxR ([4]; P. aeruginosa GN_043, PmxR): >32 µg/mL
- MIC E. coli ATCC 25922 (E. coli ATCC 25922): >32 µg/mL
- MIC K. pneumoniae ATCC 13883 (K. pneumoniae ATCC 13883): >32 µg/mL
- MIC S. aureus ATCC 25923, MSSA [5]: >32 µg/mL
- MIC P. aeruginosa GN_105, PmxR [6]: >32 µg/mL
- MIC K. pneumoniae GN_102 PmxR [7]: >32 µg/mL
- MIC A. baumannii ATCC 19606 (A. baumannii ATCC 19606): >32 µg/mL
- CC50 at 24 h (in vitro): 213 µM

Compound: CCCCCCC[C@@H](O)CC(=O)N[C@H](CCN)C(=O)N[C@H]1CCNC(=O)[C@H](CC(C)C)NC(=O)[C@H](CCN)NC(=O)[C@H](CCN)NC(=O)[C@H](C)NC(=O)[C@@H](Cc2ccccc2)NC(=O)[C@H](CCN)NC1=O [compound 4946, 3(R)OH-nC9CO-D-Dab-cyc[L-Dab-L-Dab-D-Phe-L-Ala-L-Dab-L-Dab-L-Leu]] ({Decanoyl(3R-OH)}-[dDab][Dab][Dab][dF]A[Dab][Dab]L; lactam 2-C)
- MIC K. pneumoniae ATCC 700603, MDR [1]: 8 µg/mL (≈ 7.98 µM)
- MIC A. baumannii GN_093 PmxR (A. baumannii GN_093 PmxR): 16 µg/mL (≈ 16 µM)
- MIC K. pneumoniae ATCC BAA-2146, NDM-1 pos [2]: 8 µg/mL (≈ 7.98 µM)
- MIC P. aeruginosa ATCC 27853 (P. aeruginosa ATCC 27853): 1 µg/mL (≈ 0.998 µM)
- MIC K. pneumoniae GN_106, PmxR [3]: 16 µg/mL (≈ 16 µM)
- MIC P. aeruginosa GN_043, PmxR ([4]; P. aeruginosa GN_043, PmxR): 0.5 µg/mL (≈ 0.499 µM)
- MIC E. coli ATCC 25922 (E. coli ATCC 25922): 16 µg/mL (≈ 16 µM)
- MIC K. pneumoniae ATCC 13883 (K. pneumoniae ATCC 13883): 8 µg/mL (≈ 7.98 µM)
- MIC S. aureus ATCC 25923, MSSA [5]: >32 µg/mL
- MIC P. aeruginosa GN_105, PmxR [6]: 16 µg/mL (≈ 16 µM)
- MIC K. pneumoniae GN_102 PmxR [7]: 4 µg/mL (≈ 3.99 µM)
- MIC A. baumannii ATCC 19606 (A. baumannii ATCC 19606): 16 µg/mL (≈ 16 µM)
- CC50 at 24 h (in vitro): 107 µM

Compound: CCCCCCC[C@@H](O)CC(=O)N[C@H](CCN)C(=O)N[C@H]1CCNC(=O)[C@H](CC(C)C)NC(=O)[C@H](CCN)NC(=O)[C@H](CCN)NC(=O)[C@H](CC(C)C)NC(=O)[C@@H](Cc2ccc(-c3ccccc3)cc2)NC(=O)[C@H](CCN)NC1=O [compound 5010, 3(R)OH-nC9CO-D-Dab-cyc[L-Dab-L-Dab-D-Bip-L-Leu-L-Dab-L-Dab-L-Leu]] ({Decanoyl(3R-OH)}-[dDab][Dab][Dab][dBip]L[Dab][Dab]L; lactam 2-C)
- MIC K. pneumoniae ATCC 700603, MDR [1]: 4 µg/mL (≈ 3.57 µM)
- MIC A. baumannii GN_093 PmxR (A. baumannii GN_093 PmxR): 4 µg/mL (≈ 3.57 µM)
- MIC K. pneumoniae ATCC BAA-2146, NDM-1 pos [2]: 4 µg/mL (≈ 3.57 µM)
- MIC P. aeruginosa ATCC 27853 (P. aeruginosa ATCC 27853): 4 µg/mL (≈ 3.57 µM)
- MIC K. pneumoniae GN_106, PmxR [3]: 2 µg/mL (≈ 1.78 µM)
- MIC P. aeruginosa GN_043, PmxR ([4]; P. aeruginosa GN_043, PmxR): 2 µg/mL (≈ 1.78 µM)
- MIC E. coli ATCC 25922 (E. coli ATCC 25922): 2 µg/mL (≈ 1.78 µM)
- MIC K. pneumoniae ATCC 13883 (K. pneumoniae ATCC 13883): 2 µg/mL (≈ 1.78 µM)
- MIC S. aureus ATCC 25923, MSSA [5]: 2 µg/mL (≈ 1.78 µM)
- MIC P. aeruginosa GN_105, PmxR [6]: 2 µg/mL (≈ 1.78 µM)
- MIC K. pneumoniae GN_102 PmxR [7]: 4 µg/mL (≈ 3.57 µM)
- MIC A. baumannii ATCC 19606 (A. baumannii ATCC 19606): 4 µg/mL (≈ 3.57 µM)
- CC50 at 24 h (in vitro): 75 µM
